Assay [1] deals with keratinocytes (NHEK cells). Nature of the assay: Human keratinocyte inhibition (3H-thymidine incorporation). Format: cell-based. The source says:
(§1) Cells were checked microscopically to determine detachment from surfaces, and plates were then harvested with a cell harvester (PHD, Cambridge Technology, Inc.) Filter papers corresponding to wells were placed in scintillation vials and counted to determine the amount of ^3 H-thymidine incorporated by the cells. Test agent response was compared to a positive control of cell wells with culture media only to determine the IC50. IC50 is the concentration of test compound required to inhibit fifty percent of the incorporation of ^3 H-thymidine into proliferating cells not exposed to test agent. Uptake of 3H-thymidine is a standard test for measuring the metabolism of cells. Cells which are actively proliferating take up ^3 H-thymidine whereas cells that are not proliferating take up ^3 H-thymidine at much slower rates or not at all. Test agents that inhibit the uptake of ^3 H-thymidine thus slow the growth of cells.
Proliferating keratinocytes (NHEK cells purchased from Clonetics, Inc., San Diego, Calif.) in second passage were grown in Keratinocyte Growth Medium (KGM) (Clonetics, Inc.) Cells were trypsinized (0.025% trypsin, Clonetics), counted with a hemacytometer (Scientific Products), and seeded at a concentration of 2,500 cells/well in a 96 well microtiter plate. After allowing cells to attach to the surface overnight, the culture medium was aspirated and replaced with 100 μl of fresh KGM. Test agents were evaluated and IC50 's were determined according to the ^3 H-thymidine incorporation procedures described as in Example 18. IC50 is the concentration of test compound required to inhibit fifty percent of the incorporation of ^3 H-thymidine into proliferating cells not exposed to test agent.

In assay [2] the test system is PMA-stimulated neutrophils. Nature of the assay: Neutrophil superoxide anion release assay. Format: cell-based. Particulars: Homo sapiens, 0.5 h, 37° C., 30 minutes, cytochrome c reduction. As to the method:
Neutrophils were isolated form whole blood collected from human volunteers. All reagent materials are obtained from Sigma Chemical Company with the exception of isotonic saline (Travenol Laboratories, Inc., Deerfield, Ill.) and lymphocyte separation medium (Organon Teknika, Durham, N.C.).
Whole blood was drawn and mixed with sodium heparin to a final concentration of 10 units/ml to prevent clotting. An equal volume of 3.0 % dextran in isotonic saline was added, mixed, and allowed to settle for 30 minutes to bind red blood cells (RBC). Supernatant was removed, underlayered with lymphocyte separation medium and centrifuged for 40 min at 400 xg in a centrifuge (Beckman GPR, Norcross, Ga.). The pellet was alternately taken up in 0.2% and 1.6% NaCl to lyse RBCs before washing with Hank's Balanced Salt Solution (HBSS). […]
The neutrophil cell concentration was adjusted to 2×10^6 cells/ml with HBSS before adding 0.8 ml cells to 12×75 mm polypropylene test tubes (Fisher Scientific). […] Optical density (OD) of cytochrome c was read in a spectrophotometer (Shimadzu) at 550 nm. […] Reducing cytochrome c increases its absorbance, and the change in OD of cytochrome c is proportional to the amount of […] produced by PMA stimulation. […] Inhibition is expressed as IC50 μM and is the amount of test compound that will inhibit fifty percent of the PMA-stimulated respiratory outburst, i.e. […] production.

Assay [3] has as its target protein kinase C. Nature of the assay: Protein kinase C inhibition assay (histone H1 phosphorylation). Format: biochemical. Particulars: rat brain enzyme; histone H1 substrate; 10 min. As for the experimental part: A protein kinase C (PKC) assay is designed to duplicate the in vivo conditions required for protein kinase C function. Therefore, pH, salt and cofactor concentrations are similar to physiologic levels. A lysine rich histone, H1, was used in the assay as the phosphorylation acceptor-proteinbecause it is readily available and serves as a good substrate for protein kinase C. Enzyme was prepared from rat brain and purified to apparent homogeneity as determined by a single band on silver stained SDS-polyacrylamide.
In the screening assay, phosphatidylserine (PS) and DAG were co-sonicated to form unilamellar and multilamellar vesicles. The concentration of lipids in the assay were suboptimal to maximize the detection potential of the assay for inhibitors. Potential inhibitor compounds were added to the assay in dimethylsulfoxide at three concentrations to give final inhibitor concentrations of 4.3, 43 and 218 μM, respectively. The assay was started with the addition of enzyme and stopped after 10 min by the addition of 25% trichloroacetic acid (TCA) and 1.0 mg/ml bovine serum albumin (BSA). The radioactive histone product was retained and washed on glass fiber filters that allow the unreacted ^32 p-ATP to pass through. The amount of phosphorylation was determined by the radioactivity measured in a scintillation counter. Controls were included in every assay to measure background activity in the absence of enzyme, activity in the absence of lipids, and the maximum enzyme activity with saturating levels of the activator lipids.
Results of the protein kinase C assay are shown in Table 3 in the column labeled PKC. Results are shown as IC50, which is the concentration of test compound needed to inhibit 50% of the protein kinase C activity as compared with levels of protein kinase C activity in controls.

The target of assay [4] is T1, cAMP dependent protein kinase (PKA) (Bos taurus, UniProt P00517).
T1 construct: no regulatory subunit
Nature of the assay: cAMP dependent protein kinase (PKA) assay. The class given is biochemical. Particulars: 4.3, 43 and 218 μM; 10 min. As to the method:
Compounds found to be inhibitors of protein kinase C were tested for inhibitory activity against cAMP dependent protein kinase (PKA). This enzyme, like protein kinase C, plays an important role in cell-cell communication and is activated by a second messenger, cAMP. Secondary screening against PKA is useful for ascertaining the selectivity of the compounds of the invention. The catalytic subunit of PKA (Sigma Chemical Company, St. Louis, Mo.) was mixed with buffer before addition of the inhibitor in dimethylsulfoxide (DMSO). Potential inhibitor compounds were added to the assay in dimethylsulfoxide at three concentrations to give final inhibitor concentrations of 4.3, 43 and 218 μM, respectively. The assay was started by the addition of 32P-ATP and the reaction was allowed to proceed for 10 min before stopping with 25% trichloroacetic acid (TCA) and 1.0 mg/ml bovine serum albumin (BSA). Phosphorylated protein was then isolated by filtration and the radioactivity was counted in a beta scintillation counter.

The subject of assay [5] is MCF-7 human breast tumor cell line. Nature of the assay: Human tumor cell growth inhibition (3H-thymidine incorporation), MCF-7. The class given is cell-based. Particulars: MCF7, 18 to 24 hrs.
Text: (§2) MCF-7 a human breast tumor cell line and MCF-7/ADR an adriamycin resistant line of MCF-7 cells were obtained from the National Cancer Institute, Frederick, Md. CEM cells (ATCC accession number CCL 119) were obtained from the American Type Culture Collection, Rockville, Md.
(§3) Human tumor cells were trypsinized with 0.05% trypsin (GIBCO), counted with a hemacytometer and seeded at a concentration of 10,000 cells/well in a 96 well microtiter plate. After allowing cells to attach to the surface overnight, the culture medium was aspirated and replaced with 100 μl of fresh medium. Test agents were diluted to determine dose response at 2X final concentration and added in quadruplicate at 100 μl/well to bring the total volume of each well to 200 μl. The microtiter plate was then incubated at 37° C. 5% CO2 overnight for 18 to 24 hrs before ^3 H-thymidine was added at a concentration of 0.5 μCi/well in 50 μl culture medium. The plate was incubated again for 4 hrs under the same conditions as above. Supernatant was then aspirated and 50 μl of 0.05% trypsin (GIBCO) was added to each well.
as §1
A general note: Dividing cells build labelled thymidine or BrdU into new DNA.

Assay [6] relates to MCF-7/ADR adriamycin resistant line of MCF-7 cells. In words: Human tumor cell growth inhibition (3H-thymidine incorporation), MCF-7/ADR. The class given is cell-based. The following applies: NCI/ADR-RES, 18 to 24 hrs.
Text: as §2, §3, §1

From patent publication US5360818A, “1,3-dioxane derivatives having protein kinase C inhibitory activity” (Sphinx Pharmaceuticals Corporation, priority 1993, dated 1994) come the findings set out here.

Each structure is given as a SMILES string.

What is called IC50 is the point on the concentration scale where inhibition reaches its midpoint. For `CCCCCCCCCCCCCCCC(O)C(CO)[N+](=O)[O-]` (stereo not drawn) [Compound 3, Threo/erythro-2-Nitro-1,3-octadecanediol], the IC50 in assay [1] is 6.5 µM.

Turning to `CCCCCCCCCCCCCCC[C@@H]1OC(C)(C)OC[C@H]1NC(C)=N` (relative stereo) [Compound 10, Erythro-5-Acetamidino-2,2-dimethyl-4-pentadecyl-1,3-dioxane], the 50% inhibitory concentration (IC50) is 1.52 µM in assay [2] and 29 µM in assay [3]. Further, the “inhibitory activity against cAMP dependent protein kinase (PKA)” value (shortened to “inhibitory activity”) in assay [4] is on record as “no effect on PKA activity”.

As for `CCCCCCCCCCCCCCC[C@@H]1OC(C)(C)OC[C@H]1N` (relative stereo) [Compound 5, Erythro-2,2-dimethyl-5-amino-4-pentadecyl-1,3-dioxane], the half-maximal inhibitory concentration (IC50) in assay [2] was 13.1 µM; in assay [5], 7.7 µM; in assay [6], 6.6 µM; in assay [3] it was 130 µM. Further, the “inhibitory activity” value in assay [4] was “no effect on PKA activity”.

With `CCCCCCCCCCCCCCC[C@@H]1OC(c2ccccc2)OC[C@@H]1N` (stereo partly drawn) [Compound 19, Threo-5-Amino-2-phenyl-4-pentadecyl-1,3-dioxane], the IC50 in assay [3] came to 182 µM. Also, in assay [4], the “inhibitory activity” value is recorded as “no effect on PKA activity”.

With `CCCCCCCCCCCCCCC[C@@H]1OC(C)(C)OC[C@@H]1N` [Compound 13, Threo-(2S, 3S) -5-Amino-2,2-dimethyl-4-pentadecyl-1,3-dioxane], the figures for the IC50 in assay [5], in assay [6] and in assay [3] were 5.1 µM, 6.3 µM and 121 µM, respectively. The “inhibitory activity” value in assay [4] is “no effect on PKA activity”.

Regarding `CCCCCCCCCCCCCCC[C@H](O)[C@H](CO)NC(=O)OC(C)(C)C` [Compound 11, Tert-Butyl (1S, 2S)-N-[2-hydroxy-1-(hydroxymethyl)heptadecyl]carbamate], the values for the IC50 in assay [1] and in assay [5] were 0.8 µM and 3.2 µM, respectively.

For `CCCCCCCCCCCCCCC[C@@H]1OC(C)(C)OC[C@@H]1N` (relative stereo) [Compound 6, 2,2-Dimethyl-5-amino-4-pentadecyl-1,3-dioxane], the IC50 in assay [1] worked out at 4.7 µM; in assay [5], 6 µM; in assay [6], 5.5 µM; in assay [3], 120 µM. Also, the “inhibitory activity” value in assay [4] is reported as “no effect on PKA activity”.

As for `CCCCCCCCCCCCCCC[C@@H]1OC(C)OC[C@@H]1N` (stereo partly drawn) [Compound 18, Threo-5-Amino-2-methyl-4-pentadecyl-1,3-dioxane], the IC50 in assay [3] turned out to be 64 µM. Besides, the “inhibitory activity” value in assay [4] is given as “no effect on PKA activity”.

For `CCCCCCCCCCCCCCCC1OCOCC1N` (stereo not shown) [Compound 24], the IC50 in assay [3] was 83 µM.
